Results: US11485735B2, “Selective CDK4/6 inhibitor and preparation thereof” (Wuxi Shuangliang Biotechnology Co., Ltd., priority 2019, dated 2022)
Structures can show the parent of a compound that is named as a salt.

Columns and labels:
[1] = molecular target: CDK9 (Homo sapiens, UniProt P50750); assay: In-vitro kinase inhibitory activity, CDK9 (selectivity); type: biochemical; settings: read-out: IC50 (half maximal inhibitory concentration, nM) CDK9
[2] = test system: human colon cancer COLO205 cells; assay: Growth inhibition of tumor cells cultured in vitro, CellTiter-Glo, COLO205; type: cell-based; settings: COLO205, 72 h, CellTiter-Glo
From the text: (§1) Test drugs: Compounds of the present disclosure. Tumor cell strains: human colon cancer COLO205 cells and human breast cancer MCF-7 cells.
(§2) The growth inhibitory effects on human tumor cells COLO205 and MCF-7 cultured in vitro were observed by using a CellTiter-Glo Luminescent Cell Viability Assay Kit (Promega, Cat. No. G7572). Human tumor cells COLO205 and MCF-7 were both purchased from the American Type Culture Collection.
(§3) CellTiter-Glo Luminescent Cell Viability Assay: The previous cell culture medium was discarded, and the tumor cells were rinsed twice with PBS. An appropriate amount of trypsin (VWR, Cat. No. 0458-25G) was added to digest the tumor cells until most of the cells turned round and were detached from the wall. The trypsin digestion was terminated by adding an RPMI-1640 medium (COLO205; Gibco, Cat. No. A10491-01) containing 10% fetal bovine serum (Hyclone, Cat. No. SV30160.03) and MEM medium (MCF-7; Gibco, Cat. No. 10370-021) containing 10% fetal bovine serum and 0.01 mg/mL insulin, and the cells were gently pipetted with a pipette to completely suspend the tumor cells. After cell counting, a tumor cell suspension was prepared using a complete culture medium and the final concentration was 6.7×10^4 cells/mL. 90 μL of the tumor cell suspension was seeded in each well of a 96-well culture plate (6000 cells/well). The plate was then placed in an incubator with 5% CO2 at 37° C. and incubated for 24 h. A test drug was added by using an Agilent Bravo Automated Liquid Handling Platform, and 10 μL of the sample was added in each well. The assay was conducted in triplicate for each group. A compound of the present disclosure was dissolved in DMSO (BioRoYee, Cat. No. AF0231), and then the resulting solution was diluted to 10 μM/L, 3.33 μM/L, 1.11 μM/L, 0.37 μM/L, 0.123 μM/L, 0.041 μM/L, 0.0137 μM/L, 0.0046 μM/L, and 0.0015 μM/L with the culture medium. The concentration of DMSO was lower than 0.1%, and a culture medium containing 0.1% DMSO was added to the well which was set as a vehicle control group. The 96-well plate was placed in an incubator with 5% CO2 at 37° C. and incubated for 72 h. The 96-well plate to be tested was equilibrated at room temperature for 30 min, and 100 μL of Cell Titer-Glo reagent was added to each well. The contents of each well were mixed in an orbital shaker for 2 min to induce cell lysis, and the plate was incubated at room temperature for 10 min to achieve a constant value of fluorescent intensity. Finally, the chemiluminescence intensity was detected by TECAN M1000. Data were processed with Graphpad Prism 6.0 software. The growth curve of the cells was plotted. The cell growth inhibition rate of a drug was calculated, and the half maximal inhibitory concentration (IC50) of the drug was determined.

[3] = molecular target: T1, CDK4/CyclinD3 (Homo sapiens, UniProt P11802); assay: In-vitro kinase inhibitory activity, CDK4/CyclinD3 (Caliper EZ Reader II mobility shift); type: biochemical; settings: CDK4/CyclinD3 20 nM, ATP 2 mM, Peptide 1 μM, 27° C., 180 min; read-out: IC50 (half maximal inhibitory concentration, nM) CDK4
T1 construct: purchased Wuxi Biortus Biosciences Co. Ltd
T1 sequence (P11802 whole entry, species assumed): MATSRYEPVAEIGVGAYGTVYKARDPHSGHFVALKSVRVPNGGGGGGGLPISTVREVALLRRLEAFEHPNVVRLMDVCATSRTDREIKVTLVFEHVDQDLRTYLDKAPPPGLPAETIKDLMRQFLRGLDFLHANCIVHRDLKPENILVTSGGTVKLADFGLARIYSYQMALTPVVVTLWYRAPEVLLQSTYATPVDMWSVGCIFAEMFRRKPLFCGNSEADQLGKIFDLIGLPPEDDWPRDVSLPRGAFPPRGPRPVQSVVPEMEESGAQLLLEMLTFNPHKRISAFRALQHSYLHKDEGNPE
T1 sequence (P30281 whole entry partner, species assumed): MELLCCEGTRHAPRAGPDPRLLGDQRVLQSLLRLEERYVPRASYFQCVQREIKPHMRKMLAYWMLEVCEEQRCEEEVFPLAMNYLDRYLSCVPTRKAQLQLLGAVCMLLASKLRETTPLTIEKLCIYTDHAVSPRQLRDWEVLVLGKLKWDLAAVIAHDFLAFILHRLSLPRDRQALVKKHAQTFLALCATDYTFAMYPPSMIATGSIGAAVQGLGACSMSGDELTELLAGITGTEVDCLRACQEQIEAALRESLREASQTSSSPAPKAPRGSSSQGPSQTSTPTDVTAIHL
Protocol: The final volume for assay was 16 μL, and the reaction temperature was 27° C. CDK4/CyclinD3 was produced by Wuxi Biortus Biosciences Co. Ltd. The concentration of the kinase was determined by the results of the optimization experiment. The kinase was diluted with an assay buffer (50 mM Tris HCl pH 8.0, 0.01% Tween 20, 50 μg/mL BSA, and 5 mM MgCl2) to obtain a corresponding kinase solution (2.4× concentration). The compound was dissolved in dimethyl sulfoxide (DMSO) to reach a concentration of 10 mM. […] 2 μL of the test compound solution was mixed with 5 μL of the kinase solution, and the mixture was incubated for 10 min. 5 μL of the mixed solution of the polypeptide substrate and ATP was then added. The mixture was incubated at 27° C. for 180 min, and then the reaction was terminated by adding 4 μL of EDTA with a concentration of 120 mM to each sample. […] Each assay was conducted in at least two replicates.
(§4) The final concentrations of the reagents in the assay were as follows. […] The reaction mixture was analyzed on a Caliper EZ Reader II by electrophoretic separation of the fluorescent substrate and the phosphorylated product. Data were calculated by using GraphPad Prism version 6.0 and IC50 values were obtained by adjusting the non-linear regression models of the dose response curves.

[4] = molecular target: T2, CDK6/CyclinD3 (Homo sapiens, UniProt Q00534); assay: In-vitro kinase inhibitory activity, CDK6/CyclinD3 (Caliper EZ Reader II mobility shift); type: biochemical; settings: CDK6/CyclinD3 20 nM, ATP 2 mM, Peptide 1 μM, 27° C., 120 min; read-out: IC50 (half maximal inhibitory concentration, nM) CDK6
T2 construct: purchased Wuxi Biortus Biosciences Co. Ltd
T2 sequence (Q00534 whole entry, species assumed): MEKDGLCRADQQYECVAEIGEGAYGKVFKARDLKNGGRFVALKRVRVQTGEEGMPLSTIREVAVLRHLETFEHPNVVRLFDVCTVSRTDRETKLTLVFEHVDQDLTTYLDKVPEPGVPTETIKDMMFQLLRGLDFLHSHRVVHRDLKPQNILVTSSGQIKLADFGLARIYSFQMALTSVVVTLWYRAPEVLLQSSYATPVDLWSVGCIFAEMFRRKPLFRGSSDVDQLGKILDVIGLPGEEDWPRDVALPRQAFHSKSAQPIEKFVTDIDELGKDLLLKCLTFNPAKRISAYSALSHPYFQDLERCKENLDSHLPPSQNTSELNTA
T2 sequence (P30281 whole entry partner, species assumed): as the sequence (P30281 whole entry partner, species assumed) above
Protocol: The final volume for assay was 16 μL, and the reaction temperature was 27° C. […] The compound was dissolved in dimethyl sulfoxide (DMSO) to reach a concentration of 10 mM. […] 2 μL of the test compound solution was mixed with 5 μL of the kinase solution, and the mixture was incubated for 10 min. 5 μL of the mixed solution of the polypeptide substrate and ATP was then added. The mixture was incubated at 27° C. for 120 min, and then the reaction was terminated by adding 4 μL of EDTA with a concentration of 120 mM to each sample. […] Each assay was conducted in at least two replicates.
as §4

[5] = test system: human breast cancer MCF-7 cells; assay: Growth inhibition of tumor cells cultured in vitro, CellTiter-Glo, MCF-7; type: cell-based; settings: for IC50: MCF-7, 72 h, CellTiter-Glo; for inhibitory effect on human breast cancer MCF-7 cells (in words): summary of the table
From the text: as §1, §2, §3

[6] = molecular target: CDK2 (Homo sapiens, UniProt P24941); assay: In-vitro kinase inhibitory activity, CDK2 (selectivity); type: biochemical; settings: read-out: IC50 (half maximal inhibitory concentration, nM) CDK2

Sequence of CDK9 (P50750 whole entry, species assumed): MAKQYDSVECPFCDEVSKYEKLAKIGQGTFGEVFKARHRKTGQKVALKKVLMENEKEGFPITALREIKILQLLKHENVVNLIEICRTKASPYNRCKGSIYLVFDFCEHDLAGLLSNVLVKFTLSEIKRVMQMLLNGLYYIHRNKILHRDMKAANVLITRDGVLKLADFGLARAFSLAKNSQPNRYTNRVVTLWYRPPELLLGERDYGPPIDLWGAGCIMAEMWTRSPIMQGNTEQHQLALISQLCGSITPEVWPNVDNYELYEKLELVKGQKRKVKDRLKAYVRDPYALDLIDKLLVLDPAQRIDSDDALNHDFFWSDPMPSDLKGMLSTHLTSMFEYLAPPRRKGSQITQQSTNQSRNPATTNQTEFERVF
Sequence of CDK9 (O60563 whole entry partner, species assumed): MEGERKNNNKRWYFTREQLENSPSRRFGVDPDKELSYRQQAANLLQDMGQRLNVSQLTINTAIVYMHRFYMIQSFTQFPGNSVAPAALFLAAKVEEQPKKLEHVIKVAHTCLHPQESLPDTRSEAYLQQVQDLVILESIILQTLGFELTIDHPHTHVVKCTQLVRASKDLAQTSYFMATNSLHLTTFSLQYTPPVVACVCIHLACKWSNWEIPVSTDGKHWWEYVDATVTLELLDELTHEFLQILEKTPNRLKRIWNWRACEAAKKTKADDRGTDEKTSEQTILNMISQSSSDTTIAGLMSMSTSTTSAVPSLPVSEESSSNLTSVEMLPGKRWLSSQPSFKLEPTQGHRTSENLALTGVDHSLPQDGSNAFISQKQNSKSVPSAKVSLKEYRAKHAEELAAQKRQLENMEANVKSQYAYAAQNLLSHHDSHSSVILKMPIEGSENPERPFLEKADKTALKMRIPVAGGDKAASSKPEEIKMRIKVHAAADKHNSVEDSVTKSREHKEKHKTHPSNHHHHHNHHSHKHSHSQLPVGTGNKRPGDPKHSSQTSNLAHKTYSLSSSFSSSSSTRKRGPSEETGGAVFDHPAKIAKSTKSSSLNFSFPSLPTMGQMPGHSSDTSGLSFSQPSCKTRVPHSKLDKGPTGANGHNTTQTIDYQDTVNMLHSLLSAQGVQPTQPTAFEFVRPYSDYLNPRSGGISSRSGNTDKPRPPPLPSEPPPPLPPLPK

With `COc1c(N2CCN(CCN3CCN(c4ccc(Nc5ncc6c(C)c(C(C)=O)c(=O)n(C7CCCC7)c6n5)nc4)CC3)CC2)ccc2c1CN(C1CCC(=O)NC1=O)C2=O` (centres unmarked) [Compound 18, 3-(5-(4-(2-(4-(6-((6-acetyl-8-cyclopentyl-5-methyl-7-oxo-7,8-dihydropyrido[2,3-d]pyrimidin-2-yl)amino)pyridin-3-yl)piperazin-1-yl)ethyl)piperazin-1-yl)-4-methoxy-1-oxoisoindolin-2-yl)piperidine-2,6-dione] the IC50 [1] was > 10000 nM, the IC50 [2] was 133 nM and the IC50 [3] was 99.5 nM. The IC50 [4] was 37.8 nM and the IC50 ([5]; Homo sapiens, MCF7, 72 h) was > 10000 nM.
For `CC(=O)c1c(C)c2cnc(Nc3ccc(N4CCN(CCN5CCC(CC6CCN(c7ccc8c(c7)CN(C7CCC(=O)NC7=O)C8=O)CC6)CC5)CC4)cn3)nc2n(C2CCCC2)c1=O` (centres unmarked) [Compound 10, 3-(5-(4-((1-(2-(4-(6-((6-acetyl-8-cyclopentyl-5-methyl-7-oxo-7,8-dihydropyrido[2,3-d]pyrimidin-2-yl)amino)pyridin-3-yl)piperazin-1-yl)ethyl)piperidin-4-yl)methyl)piperidin-1-yl)-1-oxoisoindolin-2-yl)piperidine-2,6-dione], the IC50 [1] was 4150 nM, the IC50 [3] was 11.5 nM and the IC50 [6] was > 10000 nM. The IC50 [4] was 3.21 nM.
In the case of `COc1cc(N2CCN(CCN3CCN(c4ccc(Nc5ncc6c(C)c(C(C)=O)c(=O)n(C7CCCC7)c6n5)nc4)CC3)CC2)cc2c1C(=O)N(C1CCC(=O)NC1=O)C2` (centres unmarked) [Compound 16, 3-(5-(4-(2-(4-(6-((6-acetyl-8-cyclopentyl-5-methyl-7-oxo-7,8-dihydropyrido[2,3-d]pyrimidin-2-yl)amino)pyridin-3-yl)piperazin-1-yl)ethyl)piperazin-1-yl)-7-methoxy-1-oxoisoindolin-2-yl)piperidine-2,6-dione], the IC50 [1] is reported as > 10000 nM, the IC50 ([2]; Homo sapiens, COLO 205, 72 h) is reported as 66.9 nM and the IC50 [3] is reported as 60.1 nM. For the same compound, the IC50 [4] was 26.4 nM and the IC50 ([5]; Homo sapiens, MCF7, 72 h) was > 10000 nM.
`CC(=O)c1c(C)c2cnc(Nc3ccc(N4CCN(CCN5CCN(c6ccc7c(c6Cl)CN(C6CCC(=O)NC6=O)C7=O)CC5)CC4)cn3)nc2n(C2CCCC2)c1=O` (centres unmarked) [Compound 20, 3-(5-(4-(2-(4-(6-((6-acetyl-8-cyclopentyl-5-methyl-7-oxo-7,8-dihydropyrido[2,3-d]pyrimidin-2-yl)amino)pyridin-3-yl)piperazin-1-yl)ethyl)piperazin-1-yl)-4-chloro-1-oxoisoindolin-2-yl)piperidine-2,6-dione] showed an IC50 [1] of 3760 nM, an IC50 ([2]; Homo sapiens, COLO 205, 72 h) of 78.3 nM and an IC50 [3] of 44.6 nM. The IC50 [6] was > 10000 nM, the IC50 [4] was 19.6 nM and the IC50 ([5]; Homo sapiens, MCF7, 72 h) was > 10000 nM.
`CC(=O)c1c(C)c2cnc(Nc3ccc(N4CCN(CCN5CCN(c6cc7c(cc6F)C(=O)N(C6CCC(=O)NC6=O)C7)CC5)CC4)cn3)nc2n(C2CCCC2)c1=O.Cl.Cl` (centres unmarked) [Compound 27, 3-(5-(4-(2-(4-(6-((6-acetyl-8-cyclopentyl-5-methyl-7-oxo-7,8-dihydropyrido[2,3-d]pyrimidin-2-yl)amino)pyridin-3-yl)piperazin-1-yl)ethyl)piperazin-1-yl)-6-fluoro-1-oxoisoindolin-2-yl)piperidine-2,6-dione dihydrochloride] was tested, and the IC50 [1] was > 10000 nM, the IC50 [3] was 45.4 nM and the IC50 [4] was 29.6 nM. The IC50 ([5]; Homo sapiens, MCF7, 72 h) was 71.6 nM and the “inhibitory effect on human breast cancer MCF-7 cells (in words)” value [5] was “relatively good inhibitory effects”.
Work on `Cc1nc2c(F)cc(-c3nc(Nc4ccc(CN5CCN(CCN6CCN(c7ccc8c(c7)CN(C7CCC(=O)NC7=O)C8=O)CC6)CC5)cn4)ncc3F)cc2n1C(C)C` (centres unmarked) [Compound 12, 3-(5-(4-(2-(4-((6-((5-fluoro-4-(4-fluoro-1-isopropyl-2-methyl-1H-benzo[d]imidazol-6-yl)pyrimidin-2-yl)amino)pyridin-3-yl)methyl)piperazin-1-yl)ethyl)piperazin-1-yl)-1-oxoisoindolin-2-yl) piperidine-2,6-dione trihydrochloride] yielded an IC50 [1] of 688 nM, an IC50 [3] of 13 nM and an IC50 [6] of 1030 nM. It also gave an IC50 [4] of 23.2 nM.
Compound `CC(=O)c1c(C)c2cnc(Nc3ccc(N4CCN(CCN5CCN(c6c(F)cc7c(c6F)CN(C6CCC(=O)NC6=O)C7=O)CC5)CC4)cn3)nc2n(C2CCCC2)c1=O.Cl.Cl` (centres unmarked) [Compound 23, 3-(5-(4-(2-(4-(6-((6-acetyl-8-cyclopentyl-5-methyl-7-oxo-7,8-dihydropyrido[2,3-d]pyrimidin-2-yl)amino)pyridin-3-yl)piperazin-1-yl)ethyl)piperazin-1-yl)-4,6-difluoro-1-oxoisoindolin-2-yl) piperidine-2,6-dione dihydrochloride] has an IC50 [1] of 4580 nM, an IC50 [3] of 48.8 nM and an IC50 [4] of 22.1 nM. The IC50 ([5]; dihydrochloride) was 13.5 nM and the “inhibitory effect on human breast cancer MCF-7 cells (in words)” value [5] was “relatively good inhibitory effects”.
`CC(=O)c1c(C)c2cnc(Nc3ccc(N4CCN(CCN5CCC(CN6CCN(c7c(F)cc8c(c7F)CN(C7CCC(=O)NC7=O)C8=O)CC6)CC5)CC4)cn3)nc2n(C2CCCC2)c1=O` (centres unmarked) [Compound 34, 3-(5-(4-((1-(2-(4-(6-((6-acetyl-8-cyclopentyl-5-methyl-7-oxo-7,8-dihydropyrido[2,3-d]pyrimidin-2-yl)amino)pyridin-3-yl)piperazin-1-yl)ethyl)piperidin-4-yl)methyl)piperazin-1-yl)-4,6-difluoro-1-oxoisoindolin-2-yl)piperidine-2,6-dione trihydrochloride] showed an IC50 [1] of 1560 nM, an IC50 ([2]; Homo sapiens, COLO 205, 72 h) of 68.8 nM and an IC50 [3] of 17.6 nM. The IC50 [4] was 9.84 nM and the IC50 ([5]; Homo sapiens, MCF7, 72 h) was 442 nM.
Work on `COc1c(N2CCN(CCN3CCN(c4ccc(Nc5ncc6c(C)c(C(C)=O)c(=O)n(C7CCCC7)c6n5)nc4)CC3)CC2)ccc2c1CN(C1CCC(=O)NC1=O)C2=O` (centres unmarked) [Compound 19, 3-(5-(4-(2-(4-(6-((6-acetyl-8-cyclopentyl-5-methyl-7-oxo-7,8-dihydropyrido[2,3-d]pyrimidin-2-yl)amino)pyridin-3-yl)piperazin-1-yl)ethyl)piperazin-1-yl)-4-methoxy-1-oxoisoindolin-2-yl)piperidine-2,6-dione dihydrochloride] yielded an IC50 [1] of 5610 nM, an IC50 ([2]; dihydrochloride) of 43.2 nM and an IC50 [3] of 54.8 nM. The IC50 [4] was 20.5 nM and the IC50 [5] was > 10000 nM.
